Assay results as given in patent US7183252B2, “Indole peptidomimetics as thrombin receptor antagonists” (Ortho-McNeil Pharmaceutical, Inc., priority 1999, dated 2007).
Like-named read-outs stand apart in the source and are kept apart here.

Key:
[1] = molecular target: T1, thrombin receptor (PAR-1) (Homo sapiens, UniProt P25116); experiment: In vitro thrombin receptor binding assay (CHRF membranes); settings: tritiated 721-40 radioligand, read-out: Bndg IC50 (Thrombin receptor binding)
T1 construct: CHRF membranes (Jones, Biochim. Biophys. Acta 1992, 1136, 272) are thawed from −70° C; endogenous in cells; host or cells: CHRF cell membranes
T1 sequence (P25116 22-425): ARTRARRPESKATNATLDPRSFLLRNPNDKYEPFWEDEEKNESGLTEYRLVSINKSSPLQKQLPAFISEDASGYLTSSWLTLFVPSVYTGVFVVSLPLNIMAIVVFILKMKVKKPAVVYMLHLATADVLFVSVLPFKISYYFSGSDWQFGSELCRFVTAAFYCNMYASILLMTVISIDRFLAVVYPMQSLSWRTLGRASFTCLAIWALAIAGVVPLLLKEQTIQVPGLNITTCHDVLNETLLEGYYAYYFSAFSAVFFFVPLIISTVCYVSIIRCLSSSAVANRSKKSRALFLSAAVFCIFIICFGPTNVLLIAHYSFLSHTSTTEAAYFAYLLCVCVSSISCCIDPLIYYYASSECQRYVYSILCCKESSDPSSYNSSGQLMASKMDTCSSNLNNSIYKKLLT
Protocol: In Vitro Thrombin Receptor Binding Assay
CHRF membranes (Jones, Biochim. Biophys. Acta 1992, 1136, 272) are thawed from −70° C., centrifuged at maximum speed for 5 min, washed twice with binding buffer (50 mM HEPES containing 5 mM MgCl2 and 0.1% BSA), and re-suspended in binding buffer (25 μg/[…]). 100 μL of membranes are added to the 24-Wallac plates and delivered to the Tomtech apparatus. In a typical experiment, 6 μL of samples (from a 125 μg/mL intermediary plate, 20% DMSO) and 44 μL buffer are delivered to the plates (final conc. of compounds is 3.7 μg/mL, 0.6% DMSO). Similarly, 6 μL 20% DMSO and 44 μL buffer are delivered to both column 1 (NSB) and column 12 (TB). 10 μL Ser-pFPhe-Har-Leu-Har-Lys-Tyr-NH2 (721–40; 500 μM in deionized water) is added to column 1. 50 μL tritiated 721–40 (specific activity 46 Ci/mmol) is added to all the wells. The plates are mixed well for 20 seconds, incubated for 30 min,and then harvested with 10 mM HEPES/138 mM NaCl using the Skatron harvester. The filters (GF/C Brandel FPXLR 296) are presoaked 3 h in 0.5% polyethylenimine in HEPES/0.1M N-acetylglucosamine) are set in saran wrap and dried for 3 min in the microwave, and placed in sample bags (Wallac 1450-432). 4.5 mL scintillation fluid (Wallac, Betaplate Scint 1205-440) is added. The bags are sealed, placed in filter cassettes (Wallac 1450-104), and analyzed on the microbeta counter.
(§1) Table 7 contains IC50 values (μM) of the compounds in a thrombin receptor binding assay, and IC50 values (μM) against platelet aggregation stimulated by thrombin.

gel-filtered platelets = experiment: In vitro inhibition of thrombin-induced gel-filtered platelet aggregation; format: cell-based; settings: human gel-filtered platelets, agonist thrombin 50 μL of 1 unit/mL, read-out: Thrmb IC50 (Thrombin-induced aggregation of gel-filtered platelets)
Protocol: In Vitro Inhibition of Thrombin-Induced Gel-Filtered Platelet Aggregation Assay
The percentage of platelet aggregation is calculated as an increase in light transmission of compound-treated platelet concentrate vs. control-treated platelet concentrate. Human blood is obtained from drug free, normal donors in tubes containing 0.13M sodium citrate. Platelet rich plasma (PRP) is collected by centrifugation of whole blood at 200×g for 10 min at 25° C. The PRP (5 mL) is gel filtered through Sepharose 2B (bed volume 50 mL), and the platelet count is adjusted to 2×10^7 platelets per sample. The following constituents are added to a siliconized cuvette: concentrated platelet filtrate and Tyrode's buffer (0.14M NaCl, 0.0027M KCl, 0.012M NaHCO3, 0.76 mM Na2HPO4, 0.0055M glucose, 2 mg/mL BSA and 5.0 mM HEPES @ pH 7.4) in an amount equal to 350 μL 50 μL of 20 mM calcium and 50 μL of the test compound. Aggregation is monitored in a BIODATA aggregometer for the 3 min following the addition of agonist (thrombin 50 μL of 1 unit/mL).
as §1

COc1ccc(C[C@H](NC(=O)Nc2ccc3c(CN4CCCC4)cn(Cc4ccc(F)cc4)c3c2)C(=O)N[C@@H](CCCNC(=N)N)C(=O)NCc2ccccc2)cc1 [Compound 1]
IC50 [1]: 0.6 µM | IC50 (gel-filtered platelets; Platelet): 0.83 µM

COc1ccc(C[C@H](NC(=O)Nc2ccc3c(CN4CCCC4)cn(Cc4ccc(C)cc4)c3c2)C(=O)N[C@@H](CCCN=C(N)N)C(=O)NCc2ccccc2)cc1 [Compound 2]
IC50 [1]: 33.6 µM | IC50 (gel-filtered platelets; Platelet): 7.8 µM

COc1ccc(C[C@H](NC(=O)Nc2ccc3c(CNC4CCCC4)cn(Cc4ccc(F)cc4)c3c2)C(=O)N[C@@H](CCCNC(=N)N)C(=O)NCc2ccccc2)cc1 [Compound 3]
IC50 [1]: 10.7 µM | IC50 (gel-filtered platelets; Platelet): 21.4 µM

COc1ccc(C[C@H](NC(=O)Nc2ccc3c(CN4CCCC4)cn(Cc4ccc(F)cc4)c3c2)C(=O)N[C@@H](CCCNC(=N)N)C(=O)NCCCc2ccccc2)cc1 [Compound 4]
IC50 [1]: 1.3 µM | IC50 (gel-filtered platelets; Platelet): 14.7 µM

CCN(CC)Cc1cn(Cc2ccc(F)cc2)c2cc(NC(=O)N[C@@H](Cc3ccc(OC)cc3)C(=O)N[C@@H](CCCNC(=N)N)C(=O)NCCCc3ccccc3)ccc12 [Compound 5]
IC50 [1]: 1.8 µM | IC50 (gel-filtered platelets; Platelet): 2.9 µM

COc1ccc(C[C@H](NC(=O)Nc2ccc3c(CN4CCCC4)cn(Cc4cccc(F)c4)c3c2)C(=O)N[C@@H](CCCNC(=N)N)C(=O)NCc2ccccc2)cc1 [Compound 6]
IC50 [1]: 6.6 µM | IC50 (gel-filtered platelets; Platelet): 3.5 µM

COc1ccc(C[C@H](NC(=O)Nc2ccc3c(CN4CCCC4)cn(Cc4ccccc4F)c3c2)C(=O)N[C@@H](CCCNC(=N)N)C(=O)NCc2ccccc2)cc1 [Compound 7]
IC50 [1]: 3.6 µM | IC50 (gel-filtered platelets; Platelet): 1.31 µM

COc1ccc(C[C@H](NC(=O)Nc2ccc3c(CN4CCCCC4)cn(Cc4ccc(F)cc4)c3c2)C(=O)N[C@@H](CCCNC(=N)N)C(=O)NCC2CCCCC2)cc1 [Compound 8]
IC50 [1]: 2.3 µM | IC50 (gel-filtered platelets; Platelet): 8 µM

COc1ccc(C[C@H](NC(=O)Nc2ccc3c(CN4CCCC4)cn(Cc4cccc(C)c4)c3c2)C(=O)N[C@@H](CCCNC(=N)N)C(=O)NCC2CCCCC2)cc1 [Compound 9]
IC50 [1]: 10.4 µM | IC50 (gel-filtered platelets; Platelet): 2.5 µM

COC(=O)c1ccc(Cn2cc(CN3CCCCC3)c3ccc(NC(=O)N[C@@H](Cc4ccc(OC)cc4)C(=O)N[C@@H](CCCN=C(N)N)C(=O)NCC4CCCCC4)cc32)cc1 [Compound 10]
IC50 [1]: 4.8 µM | IC50 (gel-filtered platelets; Platelet): > 10 µM

COc1ccc(C[C@H](NC(=O)Nc2ccc3c(CN4CCCC4)cn(Cc4ccc(OC(F)(F)F)cc4)c3c2)C(=O)N[C@@H](CCCNC(=N)N)C(=O)NCC2CCCCC2)cc1 [Compound 11]
IC50 [1]: 2.5 µM | IC50 (gel-filtered platelets): 19.9 µM

COc1ccc(C[C@H](NC(=O)Nc2ccc3c(CN4CCCC4)cn(Cc4ccc(S(C)(=O)=O)cc4)c3c2)C(=O)N[C@@H](CCCNC(=N)N)C(=O)NCc2ccccc2)cc1 [Compound 12]
IC50 [1]: 15.9 µM | IC50 (gel-filtered platelets; Platelet): 43.2 µM

COc1ccc(C[C@H](NC(=O)Nc2ccc3c(CN4CCCC4)cn(Cc4ccc(C#N)cc4)c3c2)C(=O)N[C@@H](CCCNC(=N)N)C(=O)NCc2ccccc2)cc1 [Compound 13]
IC50 [1]: 4.5 µM | IC50 (gel-filtered platelets; Platelet): 16.2 µM

COc1ccc(C[C@H](NC(=O)Nc2ccc3c(CN4CCCC4)cn(Cc4c(Cl)cccc4Cl)c3c2)C(=O)N[C@@H](CCCNC(=N)N)C(=O)NCc2ccccc2)cc1 [Compound 14]
IC50 [1]: 1.4 µM | IC50 (gel-filtered platelets; Platelet): 0.49 µM

COc1ccc(C[C@H](NC(=O)Nc2ccc3c(CN4CCCC4)cn(Cc4ccc5ccccc5c4)c3c2)C(=O)N[C@@H](CCCNC(=N)N)C(=O)NCc2ccccc2)cc1 [Compound 15]
IC50 [1]: 4.3 µM | IC50 (gel-filtered platelets; Platelet): 11.8 µM

COc1ccc(C[C@H](NC(=O)Nc2ccc3c(CN4CCCC4)cn(Cc4cccc(OC)c4)c3c2)C(=O)N[C@@H](CCCNC(=N)N)C(=O)NCc2ccccc2)cc1 [Compound 16]
IC50 [1]: 11.5 µM | IC50 (gel-filtered platelets; Platelet): 25.8 µM

COc1ccc(C[C@H](NC(=O)Nc2ccc3c(CN4CCCC4)cn(Cc4ccccc4C)c3c2)C(=O)N[C@@H](CCCNC(=N)N)C(=O)NCc2ccccc2)cc1 [Compound 17]
IC50 [1]: 0.97 µM | IC50 (gel-filtered platelets; Platelet): 0.42 µM

COc1ccc(C[C@H](NC(=O)Nc2ccc3c(CN4CCCC4)cn(Cc4ccc(C(F)(F)F)cc4)c3c2)C(=O)N[C@@H](CCCNC(=N)N)C(=O)NCc2ccccc2)cc1 [Compound 18]
IC50 [1]: 3.7 µM | IC50 (gel-filtered platelets; Platelet): 14 µM

COc1ccc(C[C@H](NC(=O)Nc2ccc3c(CN4CCCC4)cn(Cc4ccc(Cl)cc4)c3c2)C(=O)N[C@@H](CCCNC(=N)N)C(=O)NCc2ccccc2)cc1 [Compound 19]
IC50 [1]: 1.6 µM | IC50 (gel-filtered platelets; Platelet): 3.2 µM

COc1ccc(C[C@H](NC(=O)Nc2ccc3c(CN4CCCC4)cn(Cc4ccc(OC)cc4)c3c2)C(=O)N[C@@H](CCCNC(=N)N)C(=O)NCc2ccccc2)cc1 [Compound 20]
IC50 [1]: 17.1 µM | IC50 (gel-filtered platelets; Platelet): 26.6 µM

COc1ccc(C[C@H](NC(=O)Nc2ccc3c(CN4CCCC4)cn(Cc4ccc(F)c(F)c4)c3c2)C(=O)N[C@@H](CCCNC(=N)N)C(=O)NCc2ccccc2)cc1 [Compound 21]
IC50 [1]: 1.1 µM | IC50 (gel-filtered platelets; Platelet): 3.2 µM

COc1ccc(C[C@H](NC(=O)Nc2ccc3c(CN4CCCC4)cn(Cc4ccccc4)c3c2)C(=O)N[C@@H](CCCNC(=N)N)C(=O)NCc2ccccc2)cc1 [Compound 22]
IC50 [1]: 4 µM | IC50 (gel-filtered platelets; Platelet): 3 µM

COc1ccc(C[C@H](NC(=O)Nc2ccc3c(CN4CCCC4)cn(Cc4ccc(I)cc4)c3c2)C(=O)N[C@@H](CCCNC(=N)N)C(=O)NCc2ccccc2)cc1 [Compound 23]
IC50 [1]: 3.1 µM | IC50 (gel-filtered platelets; Platelet): 8.6 µM

N=C(N)NCCC[C@H](NC(=O)[C@H](Cc1ccncc1)NC(=O)Nc1ccc2c(CN3CCCC3)cn(Cc3ccc(F)cc3)c2c1)C(=O)NCc1ccccc1 [Compound 24]
IC50 [1]: 4.8 µM | IC50 (gel-filtered platelets; Platelet): 34.8 µM

N=C(N)NCCC[C@H](NC(=O)[C@H](CC1CCCCC1)NC(=O)Nc1ccc2c(CN3CCCC3)cn(Cc3ccc(F)cc3)c2c1)C(=O)NCc1ccccc1 [Compound 25]
IC50 (gel-filtered platelets): 37.1 µM

N=C(N)NCCC[C@H](NC(=O)[C@H](Cc1ccc(F)cc1)NC(=O)Nc1ccc2c(CN3CCCC3)cn(Cc3ccc(F)cc3)c2c1)C(=O)NCc1ccccc1 [Compound 26]
IC50 [1]: 4.3 µM | IC50 (gel-filtered platelets; Platelet): 0.55 µM

NC(N)=NCCC[C@H](NC(=O)[C@H](CCc1ccccc1)NC(=O)Nc1ccc2c(CN3CCCC3)cn(Cc3ccc(F)cc3)c2c1)C(=O)NCc1ccccc1 [Compound 27]
IC50 [1]: 14.6 µM | IC50 (gel-filtered platelets; Platelet): 27.3 µM

N=C(N)NCCC[C@H](NC(=O)[C@H](Cc1cccs1)NC(=O)Nc1ccc2c(CN3CCCC3)cn(Cc3ccc(F)cc3)c2c1)C(=O)NCc1ccccc1 [Compound 28]
IC50 [1]: 4.1 µM | IC50 (gel-filtered platelets; Platelet): 13.8 µM

Cc1ccccc1Cn1cc(CN2CCCC2)c2ccc(NC(=O)N[C@H](C(=O)N[C@@H](CCCNC(=N)N)C(=O)NCc3ccccc3)c3ccccc3)cc21 [Compound 29]
IC50 [1]: 8.4 µM | IC50 (gel-filtered platelets; Platelet): > 10 µM

N=C(N)NCCC[C@H](NC(=O)[C@@H]1Cc2ccccc2CN1C(=O)Nc1ccc2c(CN3CCCC3)cn(Cc3ccc(F)cc3)c2c1)C(=O)NCc1ccccc1 [Compound 30]
IC50 [1]: 9 µM | IC50 (gel-filtered platelets; Platelet): > 10 µM

COC(=O)C(NC(=O)C(CCN)NC(=O)C(Cc1ccc(F)c(F)c1)NC(=O)Nc1ccc2c(CN3CCCC3)cn(Cc3c(Cl)cccc3Cl)c2c1)c1ccccc1 (stereo not shown) [Compound 160]
IC50 (gel-filtered platelets): 0.6 µM

NCCC(NC(=O)C(Cc1ccc(F)c(F)c1)NC(=O)Nc1ccc2c(CN3CCCC3)cn(Cc3c(Cl)cccc3Cl)c2c1)C(=O)NC(CO)c1ccccc1 (stereo not shown) [Compound 161]
IC50 (gel-filtered platelets): 0.52 µM
